Tested on: rats
Test: Respiratory function in rats (whole body plethysmography)
Format: in vivo, rat
Conditions: rats, 15 mg/kg single iv injection, positive control
Protocol: The possible side-effects of SET-M33 on respiratory function were evaluated after administration of the peptide as a single intravenous bolus at doses of 5, 9 and 15 mg/kg with vehicle (eight animals/group). Respiratory rate, tidal volume and minute volume were assessed. As in the case of neurological toxicity and the 4-week toxicity study, again the dose levels were selected on the basis DRF (above). Baclofen, a muscle relaxer and antispasmodic used to treat muscle pain, spasms and stiffness in people with multiple sclerosis or spinal cord injury or disease, was used as positive control. It was administered as a single intravenous injection at a dose of 15 mg/kg.
Whole body, bias flow plethysmography equipment was used[51]. Respiratory parameters (respiratory rate, tidal volume and minute volume) were derived from the changes in pressure associated with the warming and humidification of the air breathed in by the animal. This was monitored by specific probes located in the plethysmograph chambers. Bias flow (room air) was set at approximately 2.5 L/min. On a day prior to the first day of dosing, all animals were habituated to the plethysmographs for approximately 2 h. The study was run over 4 days and 10 animals (two from each group) were examined each day. On the day of dosing, the animals were placed in the plethysmographs for pre-dose recording (session 1) of respiratory parameters for 60 min. Groups of 8 rats were then removed from the chambers and dosed by intravenous bolus injection with vehicle, SET-M33 or positive control. Immediately after dosing, the rats were placed in the whole body plethysmographs, where they could move about freely, to continuously record respiratory parameters for 4 h post-dose (undisturbed recording). Immediately after the last post-dose recording, the animals were killed humanely by a rising concentration of carbon dioxide. Death was confirmed by dislocation of the neck. Respiratory parameters were reported at the following time points: 0, 30, 60, 90, 120, 150, 180, 210 and 240 min. Time 0 coincided with the mean value of the last 20 min of data recorded in the 60-min pre-dose period. All other time points were the mean of 10-min recordings (an average of every 10 breaths) around each time point. Each post-dose time point was analysed separately by analysis of covariance. Factors in the model were group and day of data collection, with pre-dose values as covariate.

For NCC(CC(=O)O)c1ccc(Cl)cc1 (centres unmarked) [Baclofen, reference compound], the “respiratory rate vs vehicle” value was “sharp, statistically significant decrease” and the “tidal volume and minute volume vs vehicle” value was “sharp, statistically significant increases”.

Source: article PMC9652379, “Safety evaluations of a synthetic antimicrobial peptide administered intravenously in rats and dogs” (Scientific Reports, 2022)
